Where two headings read alike, the source gives them in different places.
Legend:
[1] = Bone calcium mobilization (serum calcium) in vitamin D-deficient rats; assay type: in vivo, rat
Protocol: (§1) Intestinal Calcium Transport and Bone Calcium Mobilization
(§2) Male, weanling Sprague-Dawley rats were placed on Diet 11 (0.47% Ca) diet+AEK oil for one week followed by Diet 11 (0.02% Ca)+AEK oil for 3 weeks. The rats were then switched to a diet containing 0.47% Ca for one week followed by two weeks on a diet containing 0.02% Ca. Dose administration began during the last week on 0.02% calcium diet. Four consecutive ip doses were given approximately 24 hours apart. Twenty-four hours after the last dose, blood was collected from the severed neck and the concentration of serum calcium determined as a measure of bone calcium mobilization. The first 10 cm of the intestine was also collected for intestinal calcium transport analysis using the everted gut sac method.

[2] = tested on: 24-hydroxylase (24Ohase) gene promoter in ROS 17/2.8 (bone) cells; test: In vitro transcription assay (24-hydroxylase promoter luciferase reporter); assay type: cell-based; settings: ROS 17/2.8 cells, FIG. 3, read-out: EC50, transcriptional activity in bone cells (24-hydroxylase gene)
Protocol: In Vitro Transcription Assay
Transcription activity was measured in ROS 17/2.8 (bone) cells that were stably transfected with a 24-hydroxylase (24Ohase) gene promoter upstream of a luciferase reporter gene (Arbour et al., 1998). Cells were given a range of doses. Sixteen hours after dosing the cells were harvested and luciferase activities were measured using a luminometer.
RLU=relative luciferase units.

HL-60 cells = test: HL-60 differentiation (nitro blue tetrazolium reduction); assay type: cell-based, human; settings: differentiation of HL-60 cells into monocytes, FIG. 2, read-out: EC50, HL-60 cell differentiation
Protocol: The study drugs were dissolved in ethanol and the concentrations determined using UV spectrophotometry. Serial dilutions were prepared so that a range of drug concentrations could be tested without changing the final concentration of ethanol (≤0.2%) present in the cell cultures.
Human promyelocytic leukemia (HL60) cells were grown in RPMI-1640 medium containing 10% fetal bovine serum. The cells were incubated at 37° C. in the presence of 5% CO2.
HL60 cells were plated at 1.2×10^5 cells/ml. Eighteen hours after plating, cells in duplicate were treated with drug. Four days later, the cells were harvested and a nitro blue tetrazolium reduction assay was performed (Collins et al., 1979; J. Exp. Med. 149:969-974). The percentage of differentiated cells was determined by counting a total of 200 cells and recording the number that contained intracellular black-blue formazan deposits. Verification of differentiation to monocytic cells was determined by measuring phagocytic activity (data not shown).

[3] = Intestinal calcium transport (everted gut sac) in vitamin D-deficient rats; assay type: in vivo, rat
Protocol: as §1, §2

[4] = biological target: T1, full-length recombinant rat vitamin D receptor (Rattus norvegicus, UniProt P13053); test: Vitamin D receptor binding, competition with [3H]-1,25(OH)2D3; settings: full-length recombinant rat VDR; FIG. 1
T1 construct: Full-length recombinant rat receptor was expressed in E. coli; histidine tag (C); made in house; host or cells: E. coli BL21 (DE3) Codon Plus RIL
T1 sequence (P13053 1-423): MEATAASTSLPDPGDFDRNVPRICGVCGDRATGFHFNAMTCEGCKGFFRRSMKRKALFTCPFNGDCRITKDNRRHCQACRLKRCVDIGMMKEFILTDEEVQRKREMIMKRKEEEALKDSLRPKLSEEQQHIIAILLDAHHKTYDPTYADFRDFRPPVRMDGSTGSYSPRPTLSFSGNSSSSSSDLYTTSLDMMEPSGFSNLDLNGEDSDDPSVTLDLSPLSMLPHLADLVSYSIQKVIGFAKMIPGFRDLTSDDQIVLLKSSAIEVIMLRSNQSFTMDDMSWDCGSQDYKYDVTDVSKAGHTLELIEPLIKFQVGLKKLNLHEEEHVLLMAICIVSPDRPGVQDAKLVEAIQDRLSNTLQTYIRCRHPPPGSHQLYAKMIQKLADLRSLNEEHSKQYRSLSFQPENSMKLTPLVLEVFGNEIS
Source text: Vitamin D Receptor Binding
Full-length recombinant rat receptor was expressed in E. coli BL21 (DE3) Codon Plus RIL cells and purified to homogeneity using two different column chromatography systems. The first system was a nickel affinity resin that utilizes the C-terminal histidine tag on this protein. The protein that was eluted from this resin was further purified using ion exchange chromatography (S-Sepharose Fast Flow). Aliquots of the purified protein were quick frozen in liquid nitrogen and stored at −80° C. until use. For use in binding assays, the protein was diluted in TEDK50 (50 mM Tris, 1.5 mM EDTA, pH7.4, 5 mM DTT, 150 mM KCl) with 0.1% Chaps detergent. The receptor protein and ligand concentration were optimized such that no more than 20% of the added radiolabeled ligand was bound to the receptor.
The following day, 100 mcl of hydroxylapatite slurry (50%) was added to each tube and mixed at 10-minute intervals for 30 minutes. The hydroxylapaptite was collected by centrifugation and then washed three times with Tris-EDTA buffer (50 mM Tris, 1.5 mM EDTA, pH 7.4) containing 0.5% Titron X-100. After the final wash, the pellets were transferred to scintillation vials containing 4 ml of Biosafe II scintillation cocktail, mixed and placed in a scintillation counter. Total binding was determined from the tubes containing only radiolabeled ligand.

| Ki [4] | EC50 (HL-60 cells; Homo sapiens) | SMILES | serum calcium levels (bone calcium mobilization) ([1]; vitamin D-deficient rats, low calcium diet (0.02%), all dosages, FIGS. 4A and 4B) | EC50 [2] | EC50 (HL-60 cells) | bone calcium mobilization at 780 pmol/day ([1]; 780 pmol/day, FIG. 4B, second group of animals) | dose giving about the same mobilization of bone calcium as 1,25(OH)2D3 at 260 pmol/day ([1]; 4 consecutive days, ip, FIG. 4A, first group of animals) | dose giving about the same mobilization of bone calcium as native hormone at 780 pmol/day ([1]; 4 consecutive days, ip, FIG. 4B, second group of animals) | bone calcium mobilization activity, times less than 1,25(OH)2D3 ([1]; FIGS. 4A and 4B) | intestinal calcium transport activity at 87 pmol/day ([3]; 87 pmol/day for 4 consecutive days, FIG. 5A) | intestinal calcium transport activity at 260 pmol/day and then 780 pmol/day ([3]; 260 pmol/day and 780 pmol/day, 4 consecutive days, FIG. 5A) | intestinal calcium transport activity compared with 1,25(OH)2D3 ([3]; in vivo, dose dependent, FIGS. 5A and 5B) |
| --- | --- | --- | --- | --- | --- | --- | --- | --- | --- | --- | --- | --- |
|  |  | C=C1/C(=C\C=C2/CCC[C@]3(C)[C@@H]([C@H](C)CCCC(C)(C)O)CC[C@@H]23)C[C@@H](O)C[C@@H]1O [1α,25-dihydroxyvitamin D3, reference compound] | increased serum calcium levels at all dosages | 0.3 nM | 2 nM |  |  |  |  |  |  |  |
| 0.3 nM | 4 nM | C=C1[C@H](O)CC(=C/C=C2\CCC[C@]3(C)[C@@H]([C@H](C)/C=C/C(=O)C4(C(=O)CCCCC)CC4)CC[C@@H]23)C[C@H]1O [UW-05, 2-methylene-(22E)-25-hexanoyl-24-oxo-26,27-cyclo-22-dehydro-19-nor-1α-hydroxyvitamin D3] |  | 0.3 nM |  | no substantial effect was seen | 780 pmol/day | 7020 pmol/day | about 10 times | did not result in substantial activity | a significant increase in effect was seen | approximately equal to 1,25-dihydroxyvitamin D3 |

— US10479764B2, “2-methylene-(22E)-25-hexanoyl-24-oxo-26,27-cyclo-22-dehydro-19-nor-vitamin D analogs” (WISCONSIN ALUMNI RESEARCH FOUNDATION, priority 2011, dated 2019)
